Reference: ChEMBL document CHEMBL6134826, “Cross-subclass metallo-β-lactamase inhibitors: From structural and catalytic commonalities guiding design” (Eur J Med Chem, 2025)

How the values were obtained:
[1] = target: T1, Metallo-beta-lactamase type 2 (Bacteria, UniProt C7C422); test: Inhibition of NDM-1 (unknown origin) using nitrocefin as substrate by colorimetric assay
[2] = system: Bacteria; test: Inhibition of L1 (unknown origin) at 100 uM relative to control
[3] = target: Metallo-beta-lactamase type 2 (Bacteria) (UniProt C7C422); test: Inhibition of NDM-1 (unknown origin) at 100 uM relative to control
Sequence of Metallo-beta-lactamase type 2 (Bacteria) (C7C422 whole entry): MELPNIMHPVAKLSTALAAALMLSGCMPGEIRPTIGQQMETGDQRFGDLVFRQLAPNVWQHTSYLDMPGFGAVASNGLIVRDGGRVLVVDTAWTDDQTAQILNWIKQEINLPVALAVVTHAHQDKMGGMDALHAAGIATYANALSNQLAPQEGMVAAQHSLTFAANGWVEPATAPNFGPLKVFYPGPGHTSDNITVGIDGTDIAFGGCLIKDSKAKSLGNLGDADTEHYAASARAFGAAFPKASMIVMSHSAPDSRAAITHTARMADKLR

[4] = Inhibition of CphA (unknown origin); parameters: species or system Bacteria
[5] = Inhibition of L1 (unknown origin); parameters: species or system Bacteria
[6] = target: T1, Metallo-beta-lactamase type 2; test: Inhibition of NDM-1 (unknown origin)using fluorescent cephalosporin as substrate preincubated for 10 mins followed by substrate addition by fluorescence based assay
[7] = Inhibition of BcII (unknown origin); parameters: species or system Bacteria
[8] = Inhibition of IMP-1 (unknown origin); parameters: species or system Bacteria
[9] = Inhibition of ImiS (unknown origin); parameters: species or system Bacteria
[10] = Binding affinity to L1 (unknown origin) assessed as inhibition constant; parameters: species or system Bacteria
[11] = Inhibition of Sfh-1 (unknown origin); parameters: species or system Bacteria
[12] = Binding affinity to VIM-2 (unknown origin) assessed as inhibition constant; parameters: species or system Bacteria
[13] = Binding affinity to Sfh-1 (unknown origin) assessed as inhibition constant; parameters: species or system Bacteria
[14] = target: T1, Metallo-beta-lactamase type 2; test: Binding affinity to NDM-1 (unknown origin) assessed as inhibition constant
[15] = Inhibition of recombinant VIM-2 (unknown origin); parameters: species or system Bacteria
[16] = target: T1, Metallo-beta-lactamase type 2; test: Inhibition of NDM-1 (unknown origin)
[17] = system: Bacteria; test: Inhibition of IMP-1 (unknown origin) at 100 uM relative to control
[18] = Binding affinity to IMP-1 (unknown origin) assessed as inhibition constant; parameters: species or system Bacteria
[19] = Binding affinity to BcII (unknown origin) assessed as inhibition constant; parameters: species or system Bacteria

T1 sequence (C7C422 whole entry): as above

SMILES: O=C(O)C(=O)CBr [BROMOPYRUVATE]
- IC50 [1]: 2.57 µM
- inhibition [2]: 33.3%
- inhibition [3]: 90.9%

SMILES: CC(C)c1cccc2c(-c3ccc(Cn4cncn4)cc3)c(C(=O)O)[nH]c12
- IC50 [4]: 0.398 µM
- IC50 [5]: 5.01 µM
- IC50 [6]: 0.00158 µM

SMILES: CC1(C)[C@H](C(=O)O)N2C(=O)[C@@H](CS)[C@H]2S1(=O)=O
- IC50 [7]: 1.4 µM
- IC50 [5]: 0.1 µM

SMILES: O=c1c2ccccc2[se]n1-c1ccccc1 [EBSELEN]
- IC50 [8]: 1.59 µM
- IC50 [1]: 0.072 µM

SMILES: CCN(CC)C(=S)SSC(=S)N(CC)CC [DISULFIRAM]
- IC50 [9]: 3.6 µM
- IC50 [8]: 2.9 µM
- IC50 [1]: 0.13 µM

SMILES: CC1(C)S[C@H]2CS[C@H](CS)N2[C@@H]1C(=O)O
- Ki [10]: 11 µM
- IC50 [11]: 0.36 µM
- Ki [12]: 6 µM

SMILES: C[C@]1(Cn2ccnn2)[C@H](C(=O)O)N2C(=O)C[C@H]2S1(=O)=O [TAZOBACTAM]
- Ki [13]: 62.2 µM
- Ki [12]: 128 µM

SMILES: CCN(CC)c1ccc2c(-c3ccccc3C(=O)OCCn3[se]c4ccccc4c3=O)c3ccc(N(CC)CC)cc3[o+]c2c1
- IC50 [9]: 8.62 µM
- IC50 [8]: 0.46 µM
- IC50 [1]: 0.016 µM

SMILES: O=C(N[C@@H](C(=O)O)c1ccc(Cn2cnnn2)s1)[C@@H](S)CCc1ccccc1
- IC50 [8]: 0.09 µM
- IC50 [5]: 0.5 µM

SMILES: SCC1SCC2Nc3ccccc3N21 (centres undefined)
- Ki [14]: 77 µM
- IC50 [11]: 1.4 µM
- IC50 [5]: 0.62 µM

SMILES: CC1(C)[C@H](C(=O)O)N2C(=O)[C@H](CS)[C@H]2S1(=O)=O
- IC50 [7]: 12 µM
- IC50 [5]: 0.3 µM

SMILES: NCCN[C@H]1CC[C@H](CC(=O)N[C@H]2Cc3cccc(C(=O)O)c3OB2O)CC1
- IC50 [4]: 2.51 µM
- IC50 [15]: 0.005 µM
- IC50 [5]: > 10 µM

SMILES: CC(C)c1cccc2c(-c3cc(Cl)cc(Cl)c3)c(C(=O)O)[nH]c12
- IC50 [4]: 0.63 µM
- IC50 [5]: 0.501 µM

SMILES: CCOC(=O)[C@]1(CS)N[C@H](C(=O)O)C(C)(C)S1
- Ki [14]: 8 µM
- IC50 [11]: 100 µM
- IC50 [5]: 28 µM

SMILES: O=C(CCn1[se]c2ccccc2c1=O)Oc1ccc2ccc(=O)oc2c1
- IC50 [9]: 12.5 µM
- IC50 [8]: 0.97 µM
- IC50 [1]: 0.025 µM

SMILES: O=C(O)c1cccc2c1OB(O)[C@@H](NC(=O)C1CCCCC1)C2
- IC50 [4]: 4.42 µM
- IC50 [16]: 2.04 µM

SMILES: CCN(CC)c1ccc2cc(C(=O)NCCC[Se]C#N)c(=O)oc2c1
- IC50 [9]: 0.56 µM
- IC50 [8]: 0.12 µM
- IC50 [1]: 0.081 µM

SMILES: CC(=O)OC1C2CCC(C(=O)O)N2P1(=O)O (centres undefined)
- inhibition [17]: 70%
- inhibition [2]: 70%

SMILES: CCOC(=O)[C@]1(CS)N[C@H](C(=O)O)CS1
- Ki [14]: 0.44 µM
- IC50 [11]: 1.3 µM
- IC50 [5]: 20 µM

SMILES: CNCc1ccc([C@@H]2C[C@@H](SC3=C(C(=O)O)N4C(=O)[C@H]([C@@H](C)O)[C@H]4[C@H]3C)CN2)cc1
- Ki [18]: 0.18 µM

SMILES: O=C(CCn1[se]c2ccccc2c1=O)ON1C(=O)CCC1=O
- IC50 [9]: 7.65 µM
- IC50 [8]: 0.53 µM
- IC50 [1]: 0.045 µM

SMILES: C[C@H](NC(=O)CCS)C(=O)O
- Ki [18]: 68 µM
- Ki [19]: 5.6 µM
- Ki [10]: 6.5 µM

SMILES: O=C(O)c1cccc2c1OB(O)C(SCc1ccccc1)C2 (centres undefined)
- IC50 [4]: 0.501 µM
- IC50 [5]: 5.01 µM

SMILES: O=C(O)[C@@H]1CS[C@H]2CS[C@H](CS)N21
- Ki [10]: 12 µM
- IC50 [11]: 0.26 µM
- Ki [12]: 2.9 µM

SMILES: CC(C)c1cccc2c(-c3ccc(CS(C)(=O)=O)c(Cl)c3)c(C(=O)O)[nH]c12
- IC50 [4]: 1.26 µM
- IC50 [5]: 0.0501 µM
- IC50 [6]: 0.00126 µM
